Test results from patent US20210213037A1, “METHODS FOR TREATING FIBROSIS” (CHILDREN'S HOSPITAL MEDICAL CENTER, priority 2018, published 2021).

Key:
[1] = test system: idiopathic pulmonary fibrosis; details: cited from earlier work
TGFα mice = assay: TGFα-induced pulmonary fibrosis mouse model, therapeutic intervention in established fibrosis; assay type: in vivo; details: vs vehicle
Text: Mouse model of TGFα-induced pulmonary fibrosis and Barasertib treatment therapy The generation of TGFα-overexpressing mice has been described previously (HARDIE et al. (2004) “Conditional expression of transforming growth factor-alpha in adult mouse lung causes pulmonary fibrosis” Am J Physiol Lung Cell Mol Physiol, Vol. 286, pp. L741-749, which is herein incorporated by reference in its entirety). Clara cell-specific protein-rtTA^+/− (CCSP-rtTA) mice were crossed with heterozygous (TetO)7-cmv TGFα mice to produce bitransgenic CCSP/TGFα mice. To induce TGFα expression, the transgenic mice were fed with doxycycline (Dox)-containing chow (62.5 mg/kg) (MADALA et al. (2014) “Inhibition of the alphavbeta6 integrin leads to limited alteration of TGF-alpha-induced pulmonary fibrosis” Am J Physiol Lung Cell Mol Physiol, Vol. 306, pp. L726-735, which is herein incorporated by reference in its entirety). They were housed under specific pathogen-free conditions and handled in accordance with protocols approved by the Institutional Animal Care and Use Committee of the Cincinnati Children's Hospital Research Foundation. Barasertib (Selleckchem, Houston, Tex.) was prepared in fresh vehicle (5% DMSO and 50% PEG in PBS) every day before treatment. […]

In the case of `Cc1ccc(=O)n(-c2ccccc2)c1` [pirfenidone], the effect on mortality [1] is listed as “neither pirfenidone nor nintedanib had any effect” and the “effect on respiratory symptoms” value [1] is listed as “no effect”.

For `COC(=O)c1ccc2c(c1)NC(=O)/C2=C(\Nc1ccc(N(C)C(=O)CN2CCN(C)CC2)cc1)c1ccccc1` [nintedanib], the “fibroproliferation (Ki67 immunostaining of lung sections)” value (TGFα mice; Dox two weeks, then barasertib 25 or 50 mg/kg QD or nintedanib 60 mg/kg QD for 5 days, data not shown) is given as “reduction in fibroproliferation”, the “expression of ECM genes (Co11α, FN1; RT-PCR)” value (TGFα mice; barasertib 25 or 50 mg/kg QD or nintedanib 60 mg/kg QD i.p., FIG. 14) is given as “attenuated” and the effect on mortality [1] is given as “neither pirfenidone nor nintedanib had any effect”.
